Experimental data taken from PubChem BioAssay AID1996.
≈ marks a conversion by molar mass, not a printed value.

Conditions: buffer; pH 7.4; 200.0 µM

| SMILES | solubility kinetic |
| --- | --- |
| N=C1SCC(=O)N1c1ccc(Cl)cc1 | > 34 µg/mL |
| CCc1nnc(NC(=O)C2CCCO2)s1 (stereo unspecified) | > 34.1 µg/mL |
| Cc1cc(NC(=O)CSc2nc3c(cc2C#N)CCCCC3)no1 | < 0.2 µg/mL |
| CCOC(=O)c1c(/N=C/C2C(=O)NC(=O)NC2=O)sc2c1CCC2 | 5.4 µg/mL (≈ 15.5 µM) |
| Nc1ccccc1Nc1nc2ccccc2[nH]1 | > 33.6 µg/mL |
| CCC(=O)c1cn(CC(=O)Nc2ccc(C)cc2C)c2ccccc12 | < 0.4 µg/mL |
| O=C(CSc1ccc(-c2ccc(F)cc2)nn1)N1CCOCC1 | > 50 µg/mL |
| CN(Cc1ccccc1)C(=O)COc1cc(Cl)ccc1Cl | 24.1 µg/mL (≈ 74.3 µM) |
| Cc1cc(C(=O)COC(=O)/C=C/c2ccco2)c(C)n1C | 12.9 µg/mL (≈ 44.9 µM) |
| C=CCn1c(SCCCC)nc([O-])cc1=O.[NH4+] | 22.4 µg/mL |
| Cc1ccc(OCCn2ccnc2)c(C)c1 | 22.8 µg/mL (≈ 105 µM) |
| O=C(COC(=O)COc1ccccc1F)NCc1ccco1 | > 46.1 µg/mL |
| CC1=C(C)CC(C(=O)NCc2ccccc2F)C(C(=O)O)C1 (stereo unspecified) | > 45.8 µg/mL |
| CC1CCCCC1NC(=O)CN1C(=O)c2ccccc2S1(=O)=O (stereo unspecified) | 25.7 µg/mL (≈ 76.4 µM) |
| CCNC(=S)Nc1cc2oc3ccccc3c2cc1OC | 3.2 µg/mL (≈ 10.7 µM) |
| CCN(C(=O)CCc1ccccc1)C1CCCCC1 | 26.8 µg/mL (≈ 103 µM) |
| Cc1ccc2[nH]c(C(=O)N3CCC(C(N)=O)CC3)cc2c1 | > 42.8 µg/mL |
| COc1ccc(NC(=O)NC2(C(=O)N3CCCC(C)C3)CCCCC2)cc1 (stereo unspecified) | 36.2 µg/mL (≈ 96.9 µM) |
| S=C(NCc1cccc(Cl)c1)NCc1ccco1 | 29.9 µg/mL (≈ 106 µM) |
| COC(=O)c1cccc(NC(=S)NC(C)C)c1 | > 37.8 µg/mL |
| CCN(CC)c1ccc(C=Nc2ccc(C)cc2C)c(O)c1 | 6.4 µg/mL (≈ 21.6 µM) |

| SMILES | solubility kinetic |
| --- | --- |
| Cc1ccc(NC(=O)C2CCCN2C(=O)NC2CCCCC2)cc1 (stereo unspecified) | 1.9 µg/mL (≈ 5.77 µM) |
| COc1ccc2c(c1)c1ncn(CC3CCCO3)c(=O)c1n2C (stereo unspecified) | 38.6 µg/mL (≈ 123 µM) |
| CC1=C(C)/C(=N\OS(=O)(=O)c2ccc(C)cc2)C=CC1=O | 3.5 µg/mL (≈ 11.5 µM) |
| CC(C)(CO)CNC1CCCN(C2Cc3ccccc3C2)C1 (stereo unspecified) | 40.5 µg/mL (≈ 134 µM) |
| CC(C)CNS(=O)(=O)c1ccc(CCC(=O)NCCc2ccccc2)cc1 | 16.3 µg/mL (≈ 42 µM) |
| COC1(NC(=O)c2ccccc2)C(C)=CC(=O)C=C1C | 40 µg/mL (≈ 147 µM) |
| O=C(c1ccc([N+](=O)[O-])cc1)N1CCc2ccccc21 | 1 µg/mL (≈ 3.73 µM) |
| O=C(OCc1ccccc1)c1cnc(Cl)c(Cl)c1 | 2.1 µg/mL (≈ 7.44 µM) |
| FC(F)(F)c1cc(NC2CCCCC2)ccn1 | 28 µg/mL (≈ 115 µM) |
| COCc1nnc(NC(=O)CCS(=O)(=O)c2ccccc2)s1 | > 51.2 µg/mL |
| c1ccc(SCc2nc3ccccc3s2)nc1 | 17.8 µg/mL (≈ 68.9 µM) |
| O=S(=O)(c1ccccc1)c1ccc(N2CCCCCC2)cc1 | < 0.7 µg/mL |
| O=C(Nc1sc2c(c1C(=O)O)CCCCC2)c1ccccc1 | > 47.3 µg/mL |
| CCOc1ccc(C(=O)NC2CCCCCCC2)cc1 | 2.5 µg/mL (≈ 9.08 µM) |
| Cc1ccccc1OCC(=O)OCC(=O)NC1CC1 | > 39.5 µg/mL |
| COC(=O)c1c(NC(=O)C(C)C)sc(C(=O)N2CCOCC2)c1C | > 53.2 µg/mL |
| Cc1ccc2[nH]cc(/C=C/c3cc[n+](C)cc3)c2c1.[I-] | > 56.4 µg/mL |
| CN1C(=O)/C(=C\c2ccc(N(C)C)cc2)OC1=S | < 0.3 µg/mL |
| Cc1ccc(-n2c(C)nc3ccsc3c2=O)cc1 | > 38.4 µg/mL |
| N#Cc1ccccc1COC(=O)c1ccc2c(c1)OCO2 | 5.2 µg/mL (≈ 18.5 µM) |
| Oc1ccc2ccccc2c1C=NC1CCCCC1 | > 38 µg/mL |

| SMILES | solubility kinetic |
| --- | --- |
| O=C(O)c1cc(O)ccc1NC(=O)c1cccc2ccccc12 | > 46.1 µg/mL |
| CN1CCCN(C(=O)c2cccc3ccccc23)CC1 | > 40.3 µg/mL |
| Cc1ccc(S(=O)(=O)N(C)C)cc1NC(=O)COC(=O)COc1ccc2c(C)cc(=O)oc2c1 | > 73.3 µg/mL |
| Cc1ccc(SCc2ccc(C(=O)N3CCCC3)cc2)cc1 | 31 µg/mL (≈ 99.5 µM) |
| O=C1NC(=O)C(c2ccccc2)(c2ccccc2)N1 | > 37.8 µg/mL |
| CCN1C(=O)CC(C(=O)OC)=C1C | 24.6 µg/mL (≈ 134 µM) |
| COc1ccc(-n2cnnc2SCC(=O)NC2CCCCC2)cc1 | > 52 µg/mL |
| CCOc1ncccc1C(=O)NCC(c1ccccc1)N(C)C (stereo unspecified) | > 47 µg/mL |
| COc1cc(C(=O)NC2CCCCCCC2)cc(OC)c1OC | < 0.7 µg/mL |
| Cc1ccc(NC(=O)CC(=O)Nc2ccc(C)cc2)cc1 | < 0.3 µg/mL |
| Cc1ccc(N2C(=O)C3CCCN3C2=S)c(C)c1 (stereo unspecified) | > 39.1 µg/mL |
| CC(=O)Nc1ccc(-c2csc(Nc3ncccn3)n2)cc1 | 0.4 µg/mL (≈ 1.28 µM) |
| COc1ccccc1N1CCN(C(=O)c2cc(C(C)(C)C)oc2C)CC1 | 41.8 µg/mL (≈ 117 µM) |
| CCN(CC)S(=O)(=O)c1ccc(N2CCc3ccccc3C2)nc1 | 25.8 µg/mL (≈ 74.7 µM) |
| COc1ccc(C(=O)NC(C)c2cccnc2)cc1S(=O)(=O)N(C)Cc1ccccc1 (stereo unspecified) | 47 µg/mL (≈ 107 µM) |
| CN(C)C(=O)C(OC(=O)c1ccc2ccccc2n1)c1ccccc1 (stereo unspecified) | > 50.2 µg/mL |
| O=C(Oc1ccccc1)N1CCN(C(=O)c2ccco2)CC1 | > 45 µg/mL |
| CCN(CC)C(C(=O)NC1CCCCC1)c1ccc(C)cc1 (stereo unspecified) | > 45.4 µg/mL |
| CN(C(=O)Nc1ccccc1)C1CCCCC1 | 8.6 µg/mL (≈ 37 µM) |
